Source: ChEMBL document CHEMBL4177710, “Bisindolylmethane thiosemicarbazides as potential inhibitors of urease: Synthesis and molecular modeling studies” (Bioorg Med Chem, 2018)

target: Urease (Canavalia ensiformis, UniProt P07374); test: Inhibition of jack bean urease assessed as reduction in ammonia production using urea as substrate after 15 mins by indophenol method
Sequence (P07374 whole entry): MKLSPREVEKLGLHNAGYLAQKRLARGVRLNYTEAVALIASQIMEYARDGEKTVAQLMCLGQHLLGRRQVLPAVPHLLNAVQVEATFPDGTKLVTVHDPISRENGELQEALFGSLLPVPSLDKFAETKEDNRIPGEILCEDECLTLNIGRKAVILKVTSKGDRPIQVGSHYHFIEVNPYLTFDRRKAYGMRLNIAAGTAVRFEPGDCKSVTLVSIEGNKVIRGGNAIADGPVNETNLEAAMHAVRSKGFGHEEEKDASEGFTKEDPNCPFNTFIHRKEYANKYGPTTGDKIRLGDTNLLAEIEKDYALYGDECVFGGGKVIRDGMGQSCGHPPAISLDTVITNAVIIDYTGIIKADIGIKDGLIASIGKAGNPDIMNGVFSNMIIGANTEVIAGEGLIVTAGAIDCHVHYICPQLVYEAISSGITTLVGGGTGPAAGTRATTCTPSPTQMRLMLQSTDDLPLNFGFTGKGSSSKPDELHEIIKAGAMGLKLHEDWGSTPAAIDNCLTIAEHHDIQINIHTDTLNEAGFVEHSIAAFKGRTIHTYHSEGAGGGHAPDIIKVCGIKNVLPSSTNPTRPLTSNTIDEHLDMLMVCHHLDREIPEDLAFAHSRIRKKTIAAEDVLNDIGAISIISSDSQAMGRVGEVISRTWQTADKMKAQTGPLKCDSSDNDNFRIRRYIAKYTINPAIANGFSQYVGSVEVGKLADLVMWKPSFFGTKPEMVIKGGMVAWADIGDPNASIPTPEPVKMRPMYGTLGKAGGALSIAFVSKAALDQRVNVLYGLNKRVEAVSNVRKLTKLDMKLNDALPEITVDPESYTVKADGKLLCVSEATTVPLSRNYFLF

`Cc1ccc(C(c2c[nH]c3ccc(C(=O)NNC(=S)Nc4ccc(F)cc4)cc23)c2c[nH]c3ccc(C(=O)NNC(=S)Nc4ccc(F)cc4)cc23)cc1` and `Cc1ccc(C(c2c[nH]c3ccc(C(=O)NNC(=S)Nc4ccc(Br)cc4)cc23)c2c[nH]c3ccc(C(=O)NNC(=S)Nc4ccc(Br)cc4)cc23)cc1` are within 1.5-fold of each other in IC50: 1100 nM for the first, 1300 nM for the second.

Going from `Cc1ccc(C(c2c[nH]c3ccc(C(=O)NNC(=S)Nc4ccccc4F)cc23)c2c[nH]c3ccc(C(=O)NNC(=S)Nc4ccccc4F)cc23)cc1` to `Cc1ccc(C(c2c[nH]c3ccc(C(=O)NNC(=S)Nc4ccccc4C)cc23)c2c[nH]c3ccc(C(=O)NNC(=S)Nc4ccccc4C)cc23)cc1`, the IC50 rises from 800 nM to 3300 nM (4.1-fold).

Going from `Cc1ccc(C(c2c[nH]c3ccc(C(=O)NNC(=S)NC45CC6CC(CC(C6)C4)C5)cc23)c2c[nH]c3ccc(C(=O)NNC(=S)NC45CC6CC(CC(C6)C4)C5)cc23)cc1` (stereo not drawn) to `Cc1ccc(C(c2c[nH]c3ccc(C(=O)NNC(=S)Nc4cccc(Br)c4)cc23)c2c[nH]c3ccc(C(=O)NNC(=S)Nc4cccc(Br)c4)cc23)cc1`, the IC50 falls from 18500 nM to 1800 nM (10-fold). The second is the more potent here.

`Cc1ccc(C(c2c[nH]c3ccc(C(=O)NNC(=S)Nc4cccc([N+](=O)[O-])c4)cc23)c2c[nH]c3ccc(C(=O)NNC(=S)Nc4cccc([N+](=O)[O-])c4)cc23)cc1` and `Cc1ccc(C(c2c[nH]c3ccc(C(=O)NNC(=S)Nc4ccc([N+](=O)[O-])cc4)cc23)c2c[nH]c3ccc(C(=O)NNC(=S)Nc4ccc([N+](=O)[O-])cc4)cc23)cc1` are within 1.5-fold of each other in IC50: 7600 nM for the first, 9500 nM for the second.

First: Cc1ccc(C(c2c[nH]c3ccc(C(=O)NNC(=S)Nc4ccc(Cl)c(Cl)c4)cc23)c2c[nH]c3ccc(C(=O)NNC(=S)Nc4ccc(Cl)c(Cl)c4)cc23)cc1
Second: Cc1ccc(C(c2c[nH]c3ccc(C(=O)NNC(=S)Nc4ccc(Cl)cc4)cc23)c2c[nH]c3ccc(C(=O)NNC(=S)Nc4ccc(Cl)cc4)cc23)cc1
The IC50 of the first is 20-fold lower: 140 nM for the first, 2750 nM for the second.

Compared with `Cc1ccc(C(c2c[nH]c3ccc(C(=O)NNC(=S)Nc4ccc(C(F)(F)F)cc4)cc23)c2c[nH]c3ccc(C(=O)NNC(=S)Nc4ccc(C(F)(F)F)cc4)cc23)cc1`, `Cc1ccc(NC(=S)NNC(=O)c2ccc3[nH]cc(C(c4ccc(C)cc4)c4c[nH]c5ccc(C(=O)NNC(=S)Nc6ccc(C)cc6)cc45)c3c2)cc1` is 8.4-fold higher in IC50: 500 nM for the first, 4200 nM for the second.

Compared with `COc1cccc(NC(=S)NNC(=O)c2ccc3[nH]cc(C(c4ccc(C)cc4)c4c[nH]c5ccc(C(=O)NNC(=S)Nc6cccc(OC)c6)cc45)c3c2)c1`, `Cc1ccc(C(c2c[nH]c3ccc(C(=O)NNC(=S)Nc4cccc(C)c4)cc23)c2c[nH]c3ccc(C(=O)NNC(=S)Nc4cccc(C)c4)cc23)cc1` is 2.4-fold lower in IC50: 12100 nM for the first, 5100 nM for the second.

Compared with `Cc1ccc(C(c2c[nH]c3ccc(C(=O)NNC(=S)Nc4ccccc4Br)cc23)c2c[nH]c3ccc(C(=O)NNC(=S)Nc4ccccc4Br)cc23)cc1`, `Cc1ccc(C(c2c[nH]c3ccc(C(=O)NNC(=S)Nc4ccccc4Cl)cc23)c2c[nH]c3ccc(C(=O)NNC(=S)Nc4ccccc4Cl)cc23)cc1` is 2.1-fold lower in IC50: 2500 nM for the first, 1200 nM for the second. The second is the more potent here.

First: Cc1ccc(C(c2c[nH]c3ccc(C(=O)NNC(=S)Nc4cccc(F)c4)cc23)c2c[nH]c3ccc(C(=O)NNC(=S)Nc4cccc(F)c4)cc23)cc1
Second: COc1ccccc1NC(=S)NNC(=O)c1ccc2[nH]cc(C(c3ccc(C)cc3)c3c[nH]c4ccc(C(=O)NNC(=S)Nc5ccccc5OC)cc34)c2c1
The IC50 of the first is 8.6-fold lower: 980 nM for the first, 8400 nM for the second. The first is the more potent here.
